Test results from patent publication US20160193131A1, “METHOD FOR REDUCING SURFACE FREE ENERGY AND COMPOSITION HAVING REDUCED SURFACE FREE ENERGY” (KANEKA CORPORATION, priority 2013, published 2016).

Assays:
Format in all cases: physicochemical
[1] = Particle size distribution by dynamic light scattering (micelle formation); details: DLS
Procedure: In a test tube, surfactin sodium salt (hereinafter, referred to as “SFNa”) and methanol (5 mL) or ethanol (5 mL) were added so that SFNa concentration became 2 mass %. The mixture was stirred using a vortex mixer for 3 minutes. A particle size distribution of the particles which were contained in each obtained dispersion was measured using a dynamic light scattering measuring device (product name: DLS-7000, manufactured by OTSUKA ELECTRON Co., Ltd.). In the measurement, Ar laser (λ=488 nm) was used as a light source and a scattering angle was adjusted to 90°. The result of the methanol dispersion is shown by FIG. 1 and the result of the ethanol dispersion is shown by FIG. 2.
First, an association behavior of SFNa was evaluated by a dynamic light scattering method as the above-described Example 1. As FIG. 4, a micelle having an average particle diameter of 44.8±7.7 nm was observed.

[2] = Surface tension measurement at 25° C. (DY-500); details: for surface tension reducing ability: 2 mass % in 20 vol % ethanol aqueous solution
Procedure: Then, an experiment for confirmation of effect of reducing surface free energy by SFNa in organic solvent was carried out. Specifically, SFNa and diethylene glycol (10 mL) was added in a test tube so that SFNa concentration became 2 mass % similarly to the above-described Example 1. The mixture was stirred using a vortex mixer for 3 minutes. The dispersion was transferred to a petri dish and left to stand. The surface tension was measured at 25° C. using a high function surface tension measuring device (“DY-500”, manufactured by Kyowa Interface Science Co., Ltd.). In addition, the surface tensions of diethylene glycol only and 2 mass % diethylene glycol solution of sodium dodecyl sulfate, i.e. “SDS”, were similarly measured as control.
An experiment for confirmation of effect of reducing surface free energy by SFNa in a mixed solvent of water and a water-miscible solvent was also carried out. Specifically, SFNa and 20 vol % ethanol aqueous solution (10 mL) was added in a test tube so that SFNa concentration became 2 mass % similarly to the above-described Example 1. The mixture was stirred using a vortex mixer for 3 minutes. In addition, 2 mass % SDS solution was obtained as control by dissolving SDS in 20 vol % ethanol aqueous solution.
In addition, the surface tension reducing ability of SFNa and SDS in 20 vol % ethanol aqueous solution was evaluated at 25° C. similarly to the above-described Example 2.
Furthermore, surface tension was measured similarly to the above-described Example 2 except that the organic solvent was changed from diethylene glycol to dimethylsulfoxide, i.e. DMSO.
An experiment for confirmation of effect of reducing surface free energy by SFNa in a mixed solvent which contained acetone as a water-miscible solvent was also carried out, since the secondary structure formation was confirmed in the above-described Example 5. Specifically, SFNa and 20 vol % or 50 vol % acetone aqueous solution (10 mL) were added in a test tube so that SFNa concentration became 1 mass % similarly to the above-described Example 1. The mixture was stirred using a vortex mixer for 3 minutes. In addition, 1 mass % SDS solution was obtained as control by dissolving SDS in 20 vol % or 50 vol % acetone aqueous solution. The dispersion was transferred to a petri dish and left to stand similarly to the above-described Example 2. The surface tension was measured at 25° C. using a high function surface tension measuring device (“DY-500”, manufactured by Kyowa Interface Science Co., Ltd.).

[3] = Secondary structure formation by circular dichroism dispersion meter
Procedure: Similarly to the above-described Example 1, SFNa and acetone (5 mL) was added in a test tube. The mixture was stirred using a vortex mixer for 3 minutes in order to prepare 0.1 mass %, 0.5 mass % or 1 mass % SFNa solution in acetone. Then, secondary structure formation of SFNa in the prepared acetone solutions was measured using a circular dichroism dispersion meter (“J-820”, manufactured by JASCO Corporation).
Similarly to the above-described Example 5, methanol (1 mL) and SFNa were measured off in a test tube, and the mixture was stirred using a vortex mixer for 3 minutes in order to prepare 0.01 to 1 mass % SFNa solutions in methanol. Then, secondary structure formation of SFNa in the prepared […] solutions was measured using a circular dichroism dispersion meter (“J-820”, manufactured by JASCO Corporation).
Similarly to the above-described Example 5, ethanol (1 mL) and SFNa were measured off in a test tube, and the mixture was stirred using a vortex mixer for 3 minutes in order to prepare 0.05 to 1 mass % SFNa solutions in ethanol. Then, secondary structure formation of SFNa in the prepared ethanol solutions was measured using a circular dichroism dispersion meter (“J-820”, manufactured by JASCO Corporation).
Similarly to the above-described Example 5, tetrahydrofuran (1 mL) and SFNa were measured off in a test tube, and the mixture was stirred using a vortex mixer for 3 minutes in order to prepare 0.5 mass % or 1 mass % SFNa solutions in tetrahydrofuran. Then, secondary structure formation of SFNa in the prepared tetrahydrofuran solutions was measured using a circular dichroism dispersion meter (“J-820”, manufactured by JASCO Corporation).

[4] = Standing for one day at 25° C. and polarization microscope observation of deposits
Procedure: In addition, the above each dispersion was left to stand for one day at 25° C. […] The depositions were observed using a polarization microscope (“ECLIPSE E600”, manufactured by NIKON CORPORATION). The result is shown as FIG. 3. […] A lamellar liquid crystal may incorporate both of a hydrophilic substance and a lipophilic substance inside, since a lamellar liquid crystal has both of a hydrophilic part and a lipophilic part.

[5] = 2 mass % in 20 vol % ethanol aqueous solution
[6] = 1 mass % in 20 vol % acetone aqueous solution
[7] = 1 mass % in 50 vol % acetone aqueous solution

micelle observation [1, 5] | surface tension reducing effect [2, 6] | surface tension reducing ability [2] | Surface tension ([2]; 2 mass % in DMSO) | Surface tension ([2]; 2 mass % in diethylene glycol) | secondary structure formation (CD, negative peak near 200 nm) ([3]; 0.01 to 1 mass % in methanol) | secondary structure formation (CD, negative peak near 200 nm) ([3]; 0.05 to 1 mass % in ethanol) | secondary structure formation (CD, negative peak near 200 nm) ([3]; 0.1, 0.5 or 1 mass % in acetone) | secondary structure formation (CD, negative peak near 200 nm) ([3]; 0.5 or 1 mass % in tetrahydrofuran) | average particle diameter of micelle [1, 5] | average particle diameter of micelle ([1]; 2 mass % in ethanol) | average particle diameter of micelle ([1]; 2 mass % in methanol) | appearance of dispersion after standing ([4]; 2 mass % ethanol dispersion) | appearance of dispersion after standing ([4]; 2 mass % methanol dispersion) | Compound | surface tension reducing effect [2, 7] | polarization microscope observation of deposits ([4]; 2 mass % ethanol dispersion)
a micelle cannot be observed | reduced the surface tension | could not reduce the surface tension | 43.4 mN/m | 44.5 mN/m |  |  |  |  |  |  |  |  |  | CCCCCCCCCCCCOS(=O)(=O)[O-].[Na+] [SDS, sodium dodecyl sulfate, reference compound] | could not reduce the surface tension | 
 | clearly superior to SDS | could clearly reduce the surface tension | 39.2 mN/m | 39.6 mN/m | forms secondary structure | forms secondary structure | forms secondary structure | forms secondary structure | 44.8±7.7 nm | 956.8±286.5 nm | 1035.1±230.7 nm | there were deposits | remained transparent | surfactin sodium salt [SFNa] | the surface tension could be clearly reduced | a Maltese Cross image which is characteristic of lamellar liquid crystal was observed
